Assay results as given in patent US6706663B2, “Herbicidal 3-heterocyclic substituted benzisothiazole and benzisoxazole compounds” (Wyeth, priority 2000, dated 2004).

Columns and labels:
[1] = tested on: ABUTH (Abutilon theophrasti); test: Postemergence herbicidal evaluation; format: in vivo, Medic.; details: postemergence
Method in brief: (§1)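 Seedlings grown for about two weeks were sprayed postemergence and then kept under standard greenhouse care. Injury was rated visually 4–5 weeks after treatment on a 0–9 scale against untreated controls, and ratings from repeat tests were averaged.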

GALAP (Galium aparine) = test: Postemergence herbicidal evaluation; format: in vivo; details: postemergence
Method in brief: as §1

[2] = tested on: IPOHE (Ipomoea hederacea); test: Postemergence herbicidal evaluation; format: in vivo, (L.) Jacq.; details: postemergence
Method in brief: as §1

SETVI (Setaria viridis) [3] = test: Postemergence herbicidal evaluation; format: in vivo, (L.) Beau; details: postemergence
Method in brief: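 Visual injury score (0-9: stand, vigor, malformation, size, chlorosis, overall appearance vs untreated control) taken four to five weeks post-spray. Two-week-old seedlings received about 0.0040 to 1.000 kg/ha active compound in acetone/water with 0.5% TWEEN 20.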

[4] = tested on: GLXMAW (Soybean, Williams); test: Postemergence herbicidal evaluation; format: in vivo, Glycine max, (L.) Merr. cv Williams; details: postemergence
Method in brief: as §1

[5] = tested on: TRZAWR (Wheat, Winter, cv Riband); test: Postemergence herbicidal evaluation; format: in vivo, Triticum aestivum; details: postemergence
Method in brief: as §1

[6] = tested on: ABUTH (Abutilon theophrasti); test: Preemergence herbicidal evaluation; format: in vivo, Medic.; details: rated 4-5 weeks after treatment
[7] = tested on: AMBEL (Ambrosia artemisifolia); test: Preemergence herbicidal evaluation; format: in vivo, L.; details: rated 4-5 weeks after treatment
Method in brief: (§2)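 Each species was sown separately in potting soil over roughly one inch of soil, and the surface sprayed with compound dissolved in aqueous acetone. Assessment used a 0–9 visual scale against a control after four to five weeks.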

[8] = tested on: CASOB (Cassia obtusifolia); test: Preemergence herbicidal evaluation; format: in vivo, L.; details: rated 4-5 weeks after treatment
Method in brief: as §2

[9] = tested on: CHEAL (Chenopodium album); test: Preemergence herbicidal evaluation; format: in vivo, L.; details: rated 4-5 weeks after treatment
Method in brief: as §2

[10] = tested on: ECHCG (Echinochloa crus-galli); test: Preemergence herbicidal evaluation; format: in vivo, (L.) Beau; details: rated 4-5 weeks after treatment
Method in brief: as §2

SETVI (Setaria viridis) [11] = test: Preemergence herbicidal evaluation; format: in vivo, (L.) Beau; details: rated 4-5 weeks after treatment
Method in brief: as §2

ZEAMX (Corn, Field) = test: Preemergence herbicidal evaluation; format: in vivo, Zea mays, L.; details: rated 4-5 weeks after treatment
[12] = tested on: CYPSE (Cyperus serotinus); test: Flooded paddy, preemergence weed control; format: in vivo, Rottb.; details: rated 3-4 weeks after treatment, 0-9 rating scale
Method in brief: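 Herbicidal effect was scored visually on a 0–9 scale against an untreated control 3–4 weeks after treatment. Compounds were applied preemergence as 50/50 v/v aqueous/acetone mixtures into flood water (1.5–3 cm deep over silt loam), at roughly 0.0080 to 0.1250 kg/ha active ingredient.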

[13] = tested on: MOOVA (Monochoria vaginalis); test: Flooded paddy, preemergence weed control; format: in vivo, Presl.; details: rated 3-4 weeks after treatment, 0-9 rating scale
Method in brief: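 Seeds or propagating organs were sown in the top 0.5 cm of silt loam soil, flooded, and the water kept 1.5 to 3 cm above the soil surface throughout. Plants were grown in the greenhouse and rated visually on a 0-9 scale against a control.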

ORYSAT (Rice, Tebonnet) = test: Flooded paddy, post-transplant rice tolerance; format: in vivo, Oryza sativa, (L.) Tebonnet; details: flooded paddy, post-transplant rice, rated 3-4 weeks after treatment, 0-9 rating scale
Method in brief: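 Visual 0-9 rating against a control, covering stand, vigor, malformation, size, chlorosis and overall appearance. Treatment was applied after transplanting paired ten-day-old seedlings into flooded silt loam, with water kept 1.5 to 3 cm deep on greenhouse benches.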

Structure (SMILES) | ABUTH herbicidal rating ([1]; rate 0.0320 kg/ha) | ABUTH herbicidal rating ([1]; rate 0.0620 kg/ha) | GALAP herbicidal rating (GALAP (Galium aparine); rate 0.0320 kg/ha) | GALAP herbicidal rating (GALAP (Galium aparine); rate 0.0620 kg/ha) | IPOHE herbicidal rating ([2]; rate 0.0320 kg/ha) | IPOHE herbicidal rating ([2]; rate 0.0620 kg/ha) | SETVI herbicidal rating (SETVI (Setaria viridis) [3]; rate 0.0320 kg/ha) | SETVI herbicidal rating (SETVI (Setaria viridis) [3]; rate 0.0620 kg/ha) | GLXMAW herbicidal rating ([4]; rate 0.0320 kg/ha) | GLXMAW herbicidal rating ([4]; rate 0.0620 kg/ha) | TRZAWR herbicidal rating ([5]; rate 0.0320 kg/ha) | TRZAWR herbicidal rating ([5]; rate 0.0620 kg/ha) | Preemergence herbicidal rating ABUTH ([6]; Rate 0.0620 kg/ha) | Preemergence herbicidal rating ABUTH ([6]; Rate 0.1250 kg/ha) | Preemergence herbicidal rating ABUTH ([6]; Rate 0.2500 kg/ha) | Preemergence herbicidal rating AMBEL ([7]; Rate 0.0620 kg/ha) | Preemergence herbicidal rating AMBEL ([7]; Rate 0.1250 kg/ha) | Preemergence herbicidal rating AMBEL ([7]; Rate 0.2500 kg/ha) | Preemergence herbicidal rating CASOB ([8]; Rate 0.0620 kg/ha) | Preemergence herbicidal rating CASOB ([8]; Rate 0.1250 kg/ha) | also measured
Cc1nn(-c2nsc3ccc(-n4c(=O)cc(C(F)(F)F)n(C)c4=O)cc23)c(C)c1C [Compound 49, 1-methyl-6-(trifluoromethyl)-3-[3-(3,4,5-trimethylpyrazol-1-yl)-1,2-benzisothiazol-5-yl]uracil] | 0.0 | 0.0 | 0.0 | 0.0 | 5.0 | 8.0 | 0.0 | 0.0 | 1.5 | 2.5 | 0.5 | 1.5 | 0.0 | 0.0 | 0.0 | 0.0 | 0.0 | 0.0 | 0.0 | 0.0 | Preemergence herbicidal rating CASOB ([8]; Rate 0.2500 kg/ha): 0.0; Preemergence herbicidal rating CHEAL ([9]; Rate 0.0620 kg/ha): 0.0; Preemergence herbicidal rating CHEAL ([9]; Rate 0.1250 kg/ha): 0.0; Preemergence herbicidal rating CHEAL ([9]; Rate 0.2500 kg/ha): 0.0; Preemergence herbicidal rating ECHCG ([10]; Rate 0.0620 kg/ha): 0.0; Preemergence herbicidal rating ECHCG ([10]; Rate 0.1250 kg/ha): 0.0; Preemergence herbicidal rating ECHCG ([10]; Rate 0.2500 kg/ha): 0.0; Preemergence herbicidal rating SETVI (SETVI (Setaria viridis) [11]; Rate 0.0620 kg/ha): 0.0; Preemergence herbicidal rating SETVI (SETVI (Setaria viridis) [11]; Rate 0.1250 kg/ha): 0.0; Preemergence herbicidal rating SETVI (SETVI (Setaria viridis) [11]; Rate 0.2500 kg/ha): 0.0; Preemergence herbicidal rating ZEAMX (ZEAMX (Corn, Field); Rate 0.0620 kg/ha): 0.0; Preemergence herbicidal rating ZEAMX (ZEAMX (Corn, Field); Rate 0.1250 kg/ha): 0.0; Preemergence herbicidal rating ZEAMX (ZEAMX (Corn, Field); Rate 0.2500 kg/ha): 0.0; herbicidal rating, CYPSE ([12]; rate 0.0320 kg/ha): 0.0; herbicidal rating, CYPSE ([12]; rate 0.1250 kg/ha): 0.0; herbicidal rating, MOOVA ([13]; rate 0.0320 kg/ha): 0.0; herbicidal rating, ORYSAT (rice tolerance) (ORYSAT (Rice, Tebonnet); rate 0.0320 kg/ha): 0.0; herbicidal rating, ORYSAT (rice tolerance) (ORYSAT (Rice, Tebonnet); rate 0.1250 kg/ha): 0.0
C[C@@H]1C[C@H](C)OC(c2nsc3ccc(-n4c(=O)cc(C(F)(F)F)n(C)c4=O)cc23)O1 (stereo partly drawn) [Compound 50, 3-[3-[(4R,6S)-4,6-dimethyl-m-dioxan-2-yl]-1,2-benzisothiazol-5-yl]-1-methyl-6-(trifluoromethyl)uracil] | 9.0 | 9.0 | 3.0 | 8.0 | 9.0 | 9.0 | 9.0 | 9.0 | 7.5 | 7.5 | 4.5 | 4.5 | 9.0 | 9.0 | 9.0 | 9.0 | 9.0 | 9.0 | 5.5 | 6.5 | Preemergence herbicidal rating CASOB ([8]; Rate 0.2500 kg/ha): 9.0; Preemergence herbicidal rating CHEAL ([9]; Rate 0.0620 kg/ha): 9.0; Preemergence herbicidal rating CHEAL ([9]; Rate 0.1250 kg/ha): 9.0; Preemergence herbicidal rating CHEAL ([9]; Rate 0.2500 kg/ha): 9.0; Preemergence herbicidal rating ECHCG ([10]; Rate 0.0620 kg/ha): 9.0; Preemergence herbicidal rating ECHCG ([10]; Rate 0.1250 kg/ha): 9.0; Preemergence herbicidal rating ECHCG ([10]; Rate 0.2500 kg/ha): 9.0; Preemergence herbicidal rating SETVI (SETVI (Setaria viridis) [11]; Rate 0.0620 kg/ha): 9.0; Preemergence herbicidal rating SETVI (SETVI (Setaria viridis) [11]; Rate 0.1250 kg/ha): 9.0; Preemergence herbicidal rating SETVI (SETVI (Setaria viridis) [11]; Rate 0.2500 kg/ha): 9.0; Preemergence herbicidal rating ZEAMX (ZEAMX (Corn, Field); Rate 0.0620 kg/ha): 9.0; Preemergence herbicidal rating ZEAMX (ZEAMX (Corn, Field); Rate 0.1250 kg/ha): 9.0; Preemergence herbicidal rating ZEAMX (ZEAMX (Corn, Field); Rate 0.2500 kg/ha): 9.0; herbicidal rating, CYPSE ([12]; rate 0.0320 kg/ha): 5.0; herbicidal rating, CYPSE ([12]; rate 0.1250 kg/ha): 7.0; herbicidal rating, MOOVA ([13]; rate 0.0320 kg/ha): 9.0; herbicidal rating, MOOVA ([13]; rate 0.1250 kg/ha): 9.0; herbicidal rating, ORYSAT (rice tolerance) (ORYSAT (Rice, Tebonnet); rate 0.0080 kg/ha): 3.0; herbicidal rating, ORYSAT (rice tolerance) (ORYSAT (Rice, Tebonnet); rate 0.0320 kg/ha): 6.5; herbicidal rating, ORYSAT (rice tolerance) (ORYSAT (Rice, Tebonnet); rate 0.1250 kg/ha): 8.5
